In PubChem BioAssay (NCI):
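96-well plates; 48 h exposure; 5 concentrations. Endpoints by linear interpolation between flanking doses. Not reached: highest tested concentration assigned. GI50: concentration for 50% inhibition of growth. At the TGI there is no net growth.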

Tests used:
Assay in all cases: inhibition of tumour cell growth, NCI panel, 48 h
UACC-257 melanoma = test system: UACC-257 melanoma
TK-10 renal = test system: TK-10 renal
NCI/ADR-RES ovarian = test system: NCI/ADR-RES ovarian
NCI-H23 lung = test system: NCI-H23 lung
COLO 205 colon = test system: COLO 205 colon
DU-145 prostate = test system: DU-145 prostate
RPMI-8226 leukemia = test system: RPMI-8226 leukemia
SR leukemia = test system: SR leukemia
CCRF-CEM leukemia = test system: CCRF-CEM leukemia
K-562 leukemia = test system: K-562 leukemia

| Compound | GI50 (UACC-257 melanoma) | TGI (UACC-257 melanoma) | GI50 (TK-10 renal) | TGI (TK-10 renal) | GI50 (NCI/ADR-RES ovarian) | TGI (NCI/ADR-RES ovarian) | GI50 (NCI-H23 lung) | TGI (NCI-H23 lung) | GI50 (COLO 205 colon) | TGI (COLO 205 colon) | GI50 (DU-145 prostate) | TGI (DU-145 prostate) | GI50 (RPMI-8226 leukemia) | TGI (RPMI-8226 leukemia) | GI50 (SR leukemia) | TGI (SR leukemia) | GI50 (CCRF-CEM leukemia) | TGI (CCRF-CEM leukemia) | GI50 (K-562 leukemia) | TGI (K-562 leukemia) |
| --- | --- | --- | --- | --- | --- | --- | --- | --- | --- | --- | --- | --- | --- | --- | --- | --- | --- | --- | --- | --- |
| N/C(=N\OC(=O)c1ccccc1)C(Cc1ccccc1)C(=O)NOC(=O)c1ccccc1 (configuration not stated) | 5.32 µM | 18.5 µM | 2.12 µM | 3.76 µM | 2.72 µM | 11.3 µM | 3.54 µM | 17.4 µM | 3.94 µM | 14.7 µM | 1.58 µM | 3.07 µM | 1.74 µM | 4.95 µM | 1.08 µM | 3.68 µM | 2.18 µM | 6.07 µM | 1.05 µM | 3.42 µM |
| O=C1C(OCCOc2ccccc2)=C(OCCOc2ccccc2)C(=O)c2ccccc21 | 3.72 µM | > 100 µM | > 100 µM | > 100 µM | 7.64 µM | > 100 µM | 1.82 µM | 24.3 µM | 41.9 µM | > 100 µM | 7.12 µM | > 100 µM | > 100 µM | > 100 µM | 7.26 µM | > 100 µM | > 100 µM | > 100 µM | > 100 µM | > 100 µM |
| Cc1[nH]nc(-c2ccon2)c1N=O |  | 31.7 µM |  | 32.9 µM |  | 38 µM |  | 45.8 µM |  | 49.4 µM |  | 41.2 µM |  | 17.1 µM |  | 29.5 µM |  |  |  | 44.8 µM |
| COC(=O)c1cc(-c2ccc(OC)c(OC)c2)[nH]c1N/N=C/c1c(Cl)cccc1Cl | 0.723 µM | > 23.1 µM | 1.64 µM | 9.47 µM | 0.557 µM | 9.01 µM | 0.848 µM | 13 µM | 0.901 µM | 4.95 µM | 0.448 µM | 1.93 µM | 0.531 µM | > 100 µM | 0.394 µM | > 100 µM | 0.406 µM | > 100 µM | 0.46 µM | > 100 µM |
| COc1cccc(Oc2ccccc2NC(=O)CNC(=O)c2cccc3ccccc23)c1 |  |  | 1.58 µM | > 25 µM | 0.238 µM | 5.69 µM | 0.735 µM | > 25 µM | 0.283 µM | 0.949 µM | 0.703 µM | > 25 µM | 0.953 µM | 13.7 µM | 0.115 µM | > 25 µM | 0.36 µM | > 25 µM | 0.13 µM | > 25 µM |
